Experimental data taken from PMC8748916, “Microbial enzymes induce colitis by reactivating triclosan in the mouse gastrointestinal tract” (Nature Communications, 2022).
“And” between values parts separate entries of the source, which are not always exact repeats. Equal entries are not always repeated. Where two headings read alike, the source gives them in different places.

Tests used:
[1] = test system: gut microbial β-glucuronidase (GUS) enzymes; experiment: Catalytic efficiency assay (HPLC) of TCS-G to TCS conversion by purified GUS enzymes; type: biochemical
[2] = target: C. perfringens GUS (Clostridium perfringens, UniProt Q8XP19); experiment: biochemical
[3] = test system: F. prausnitzii 2-L1 (Fp2-L1) GUS; experiment: In vitro IC50 assay (TCS-G to TCS conversion, HPLC); type: biochemical; conditions: for F. prausnitzii 2-L1 GUS %inhibition: Fig. 4b, triplicate
[4] = target: Eubacterium sp. CAG: 76 GUS (Eubacterium sp. CAG:76, UniProt Z9TO06ZFY0); experiment: as above; type: biochemical; conditions: Fig. 4c, triplicate
[5] = target: Loop 1 GUS enzymes; experiment: In vitro IC50 assay, purified Loop 1 GUS enzymes (group statement); type: biochemical, gut microbial; conditions: Fp2-L1 GUS and several other Loop 1 GUS enzymes; conversion of TCS-G to TCS
Protocol: Reaction mixtures containing 10 µL GUS (10 nM final), 10 µL TCS-G (200 µM final), 5 µL inhibitor (various concentrations), and 25 µL buffer (50 mM HEPES, 50 mM NaCl, various pH) or (50 mM sodium acetate, 50 mM NaCl, various pH) were incubated for 10 min and quenched with 50 µL 25% trichloroacetic acid. Samples were centrifuged 10 min at 16,000 × g, and the supernatant was analyzed using the method described for the catalytic efficiency assay. Inhibition was calculated by the equation below:1 %inhibition=100×(1−(AUCinh−AUCmax)/(AUCmin−AUCmax)) where AUCmin is the signal of the uninhibited reaction, AUCmax is the signal of the 100% inhibited reaction, and AUCinh is the signal of the reaction at a given concentration of inhibitor. Percent inhibition values were plotted against the log of inhibitor concentration, and GraphPad Prism 8.0 was used to determine IC50 values.

[6] = test system: C57BL/6 mice; experiment: Effects of GUSi on gut inflammation in mice not stimulated with DSS; type: in vivo; set-up: TNF (Fig.S12e) / IL-6 (Fig.S12e) / IL-10 (Fig.S12e) / MCP-1 (Fig.S12e): unit not given here
[7] = test system: Caco2 cells; experiment: Cell proliferation assay (MTT); type: cell-based, human
Protocol: (§1) Mouse (MC38) or human (Caco2 and HCT-116) intestinal cells were grown in DMEM medium fortified with 10% FBS (EMD Millipore Corporation). The cells were seeded in 96-well plates, then treated with GUSi or vehicle (0.2% v/v DMSO) for 24 h. Cell viability was determined using an MTT assay.
(§2) Fig. S14. GUSi treatment has little effect on the proliferation of mouse or human intestinal cells in vitro.
(§3) Mouse (MC38) or human (Caco2 and HCT-116) intestinal cells were treated with GUSi or vehicle (0.2% v/v
(§4) DMSO) for 24 h, then cell viability was analyzed using a MTT assay. The data are mean ± SEM, n = 5-6 per

[8] = test system: HCT-116 cells; experiment: Cell proliferation assay (MTT); type: cell-based, human
Protocol: as §1, §2, §3, §4

[9] = Solubility in water (statement); type: physicochemical; conditions: authors' reply to reviewers
[10] = test system: E. coli; set-up: method as in PMID 30062115; conditions: cited from earlier work
[11] = test system: fecal microbiota; experiment: 16S rRNA sequencing of fecal microbiota of GUSi-treated mice; conditions: 1 mg/kg GUSi via oral gavage
[12] = test system: human fecal bacteria; experiment: Conversion of TCS-G to TCS by anaerobically cultured human fecal bacteria in vitro; type: in vitro ADME; conditions: from TCS-G, replicates
[13] = cited from earlier work
[14] = read-out: C. perfringens GUS % inhibition
[15] = 1 mg/kg GUSi via oral gavage, 3- to 4-week treatment
[16] = cytokine level, individual mice, no DSS
[17] = gene expression, individual mice, no DSS
[18] = 24-h treatment, concentration up to 10 µM

Sequence of C. perfringens GUS (Q8XP19 whole entry, looked up): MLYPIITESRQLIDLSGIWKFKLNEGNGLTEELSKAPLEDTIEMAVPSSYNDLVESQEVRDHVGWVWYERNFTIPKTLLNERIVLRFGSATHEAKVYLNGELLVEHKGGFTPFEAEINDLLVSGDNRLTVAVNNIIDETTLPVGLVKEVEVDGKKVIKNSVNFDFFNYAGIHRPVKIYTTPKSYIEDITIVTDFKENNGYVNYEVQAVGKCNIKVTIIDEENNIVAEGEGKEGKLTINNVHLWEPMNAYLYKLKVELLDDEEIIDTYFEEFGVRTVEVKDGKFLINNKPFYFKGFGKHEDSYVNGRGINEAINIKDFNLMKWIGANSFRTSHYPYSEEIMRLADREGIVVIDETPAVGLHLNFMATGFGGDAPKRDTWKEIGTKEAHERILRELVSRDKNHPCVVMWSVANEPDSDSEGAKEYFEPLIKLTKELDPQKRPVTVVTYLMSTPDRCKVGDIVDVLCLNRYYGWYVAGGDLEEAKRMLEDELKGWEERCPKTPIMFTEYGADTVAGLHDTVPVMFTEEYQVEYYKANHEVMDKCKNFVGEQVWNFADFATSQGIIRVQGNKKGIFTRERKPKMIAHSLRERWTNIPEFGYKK
Sequence of Eubacterium sp. CAG: 76 GUS (Z9TO06ZFY0 1-737): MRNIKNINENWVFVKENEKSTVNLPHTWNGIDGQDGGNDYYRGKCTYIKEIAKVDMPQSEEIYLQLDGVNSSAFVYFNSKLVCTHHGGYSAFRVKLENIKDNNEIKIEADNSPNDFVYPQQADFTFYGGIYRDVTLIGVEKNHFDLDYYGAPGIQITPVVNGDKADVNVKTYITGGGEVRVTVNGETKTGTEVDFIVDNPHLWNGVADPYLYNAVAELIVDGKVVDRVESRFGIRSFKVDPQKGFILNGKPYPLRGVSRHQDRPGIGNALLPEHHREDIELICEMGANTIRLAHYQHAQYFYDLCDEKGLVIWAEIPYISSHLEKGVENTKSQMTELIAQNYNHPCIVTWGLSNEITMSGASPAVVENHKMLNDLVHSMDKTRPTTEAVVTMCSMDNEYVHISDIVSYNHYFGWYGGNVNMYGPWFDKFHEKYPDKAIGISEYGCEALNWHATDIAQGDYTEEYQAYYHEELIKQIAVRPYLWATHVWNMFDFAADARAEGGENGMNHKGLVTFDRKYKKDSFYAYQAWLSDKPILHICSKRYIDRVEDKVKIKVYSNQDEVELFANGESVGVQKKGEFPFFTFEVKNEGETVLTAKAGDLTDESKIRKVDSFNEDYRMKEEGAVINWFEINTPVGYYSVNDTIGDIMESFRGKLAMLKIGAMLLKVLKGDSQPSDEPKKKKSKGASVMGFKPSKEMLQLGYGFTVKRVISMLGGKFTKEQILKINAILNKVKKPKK

Q: Which Catalytic efficiency [1] does the source give for `O=C(O)C1OC(Oc2cc(Cl)ccc2Oc2ccc(Cl)cc2Cl)C(O)C(O)C1O` (centres unmarked) [TCS-G, triclosan-glucuronide] here?
A: 221350 M⁻¹ s⁻¹ and 261200 M⁻¹ s⁻¹ and 185500 M⁻¹ s⁻¹

Q: And the Catalytic efficiency ([1]; Enzyme: B. uniformis 2, Fig. 3b, replicates 1-3)?
A: 26480 M⁻¹ s⁻¹ and 25620 M⁻¹ s⁻¹ and 34030 M⁻¹ s⁻¹

Q: What about the Catalytic efficiency ([1]; Enzyme: Clostridiales sp., Fig. 3b, replicates 1-3) of the same molecule?
A: 421200 M⁻¹ s⁻¹ and 564000 M⁻¹ s⁻¹ and 643571 M⁻¹ s⁻¹

Q: What about the Catalytic efficiency ([1]; Enzyme: E. coli, Fig. 3b, replicates 1-3) of the same molecule?
A: 25610 M⁻¹ s⁻¹ and 27630 M⁻¹ s⁻¹ and 30620 M⁻¹ s⁻¹

Q: What about the Catalytic efficiency ([1]; Enzyme: E. eligens, Fig. 3b, replicates 1-3) of the same molecule?
A: 789000 M⁻¹ s⁻¹ and 987900 M⁻¹ s⁻¹ and 767700 M⁻¹ s⁻¹

Q: And the Catalytic efficiency ([1]; Enzyme: Eubacterium sp. CAG: 76, Fig. 3b, replicates 1-3)?
A: 294800 M⁻¹ s⁻¹ and 499700 M⁻¹ s⁻¹ and 451000 M⁻¹ s⁻¹

Q: And the Catalytic efficiency ([1]; Enzyme: F. prausnitzii 2-L1, Fig. 3b, replicates 1-3)?
A: 876200 M⁻¹ s⁻¹ and 975000 M⁻¹ s⁻¹ and 757000 M⁻¹ s⁻¹

Q: And the Catalytic efficiency ([1]; Enzyme: F. prausnitzii, Fig. 3b, replicates 1-3)?
A: 373850 M⁻¹ s⁻¹ and 362000 M⁻¹ s⁻¹ and 260800 M⁻¹ s⁻¹

Q: What about the Catalytic efficiency ([1]; Enzyme: R. gnavus 3, Fig. 3b, replicates 1-3) of the same molecule?
A: 816300 M⁻¹ s⁻¹ and 891300 M⁻¹ s⁻¹ and 748300 M⁻¹ s⁻¹

Q: And the Catalytic efficiency ([1]; Enzyme: R. hominis 2, Fig. 3b, replicates 1-3)?
A: 168600 M⁻¹ s⁻¹ and 249500 M⁻¹ s⁻¹ and 277800 M⁻¹ s⁻¹

Q: And the Catalytic efficiency ([1]; Enzyme: R. hominis 3, Fig. 3b, replicates 1-3)?
A: 801500 M⁻¹ s⁻¹ and 763200 M⁻¹ s⁻¹ and 1075600 M⁻¹ s⁻¹

Q: What about the Catalytic efficiency ([1]; Enzyme: R. inulinvorans, Fig. 3b, replicates 1-3) of the same molecule?
A: 450800 M⁻¹ s⁻¹ and 617200 M⁻¹ s⁻¹ and 689000 M⁻¹ s⁻¹

Q: What does the source list for `C1CCc2c(c(N3CCOCC3)nc3sc4c(N5CCNCC5)nnnc4c23)C1` [GUSi, UNC10201652]?
A: IC50 [2]: 640 ± 40 nM; inhibition at 1.23457 µM [2, 14]: 78%; inhibition at 3.7037 µM [2, 14]: 93.9%; inhibition at 11.1111 µM [2, 14]: 97.7%; inhibition at 33.3333 µM [2, 14]: 98.6%; inhibition at 100 µM [2, 14]: 99.4%; F. prausnitzii 2-L1 GUS %inhibition ([3]; GUSi 0.0457247 uM): 0% and 0.2667%; F. prausnitzii 2-L1 GUS %inhibition ([3]; GUSi 0.137174 uM): 0% and 0.1263%; F. prausnitzii 2-L1 GUS %inhibition ([3]; GUSi 0.411523 uM): 0%; F. prausnitzii 2-L1 GUS %inhibition ([3]; GUSi 3.7037 uM): 74.6624% and 62.5632% and 66.5428%; F. prausnitzii 2-L1 GUS %inhibition ([3]; GUSi 11.1111 uM): 93.6484% and 88.7563% and 88.6045%; F. prausnitzii 2-L1 GUS %inhibition ([3]; GUSi 33.3333 uM): 99.4351% and 98.0067% and 94.7151%; F. prausnitzii 2-L1 GUS %inhibition ([3]; GUSi 100 uM): 100.964% and 99.7754% and 96.4492%; IC50 ([3]; conversion of TCS-G (200 µM) to TCS, Loop 1 GUS): 2800 ± 100 nM; inhibition at 11.1111 µM ([4]; GUSi 11.1111 uM): 57.2%; inhibition at 33.3333 µM ([4]; GUSi 33.3333 uM): 73.6%; inhibition at 100 µM ([4]; GUSi 100 uM): 84.1%; IC50 [5]: 640 to 4900 nM; effect on body weight [6, 15]: little effects; effect on colon histology [6, 15]: little effects; effect on colon length [6, 15]: little effects; effect on colonic or systematic inflammation [6, 15]: little effects; IFN (Fig.S12e) [6, 16]: 0; IL-6 (Fig.S12e) [6, 16]: 13.43 and 0 and 6.45; IL-10 (Fig.S12e) [6, 16]: 37.4 and 0 and 198.61 and 44.6 and 23.86; IL-12P70 (Fig.S12e) [6, 16]: 25.71 and 0 and 88.12; MCP-1 (Fig.S12e) [6, 16]: 48.03 and 146.49 and 57.21 and 61.62 and 184.9 and 179.76 and 331.3 and 143.93; TNF (Fig.S12e) [6, 16]: 60.3 and 20.04 and 10.87 and 8.58 and 0 and 48.52 and 31.51 and 26.47; ifn (Fig.S12d) [6, 17]: 0.5314 and 0.5552 and 0.6727 and 2.025 and 1.546 and 2.975 and 0.7505 and 0.9593; il6 (Fig.S12d) [6, 17]: 0.9822 and 0.6373 and 0.485 and 1.527 and 0.9215 and 0.6364 and 1.1212 and 1.239; il17 (Fig.S12d) [6, 17]: 1.45 and 0.9375 and 0.5532 and 1.296 and 0.6529 and 0.514 and 0.9732 and 1.7301; il-1b (Fig.S12d) [6, 17]: 1.675 and 3.673 and 1.563 and 0.709 and 1.249 and 2.221 and 3.587 and 1.198; il-10 (Fig.S12d) [6, 17]: 1.7121 and 1.046 and 0.8638 and 1.378 and 1.892 and 1.921 and 0.8229 and 0.4425; il-23 (Fig.S12d) [6, 17]: 1.384 and 0.7725 and 0.7614 and 1.398 and 2.3746 and 0.7478 and 0.414 and 0.4606; mcp1 (Fig.S12d) [6, 17]: 1.246 and 0.6949 and 0.7972 and 1.205 and 1.387 and 0.8717 and 0.5743 and 0.5267; tlr-4 (Fig.S12d) [6, 17]: 1.193 and 1.155 and 1.078 and 1.23 and 1.258 and 1.02 and 0.5994 and 0.6478; tnf (Fig.S12d) [6, 17]: 0.9505 and 1.516 and 0.4248 and 0.7567 and 1.942 and 2.3131 and 2.563 and 2.05; effect on cell growth (MTT) [7, 18]: little effect; Cell proliferation (Fig. S14) ([7]; Caco2, concentration 1, replicates): 98.3792 and 85.2575 and 104.44 and 99.0453 and 92.8508 and 100.244; Cell proliferation (Fig. S14) ([7]; Caco2, concentration 2, replicates): 86.1234 and 96.6474 and 97.7798 and 94.9156 and 100.844; Cell proliferation (Fig. S14) ([7]; Caco2, concentration 5, replicates): 95.1821 and 92.3845 and 92.5844 and 91.9849 and 82.46 and 86.0568; Cell proliferation (Fig. S14) ([7]; Caco2, concentration 10, replicates): 85.1243 and 87.6554 and 72.6021 and 79.7957 and 82.3268 and 62.0782; effect on cell growth (MTT) [8, 18]: little effect; Cell proliferation (Fig. S14) ([8]; HCT 116, concentration 1, replicates): 91.3142 and 95.487 and 92.4485 and 104.886 and 100.024; Cell proliferation (Fig. S14) ([8]; HCT 116, concentration 2, replicates): 98.4038 and 88.5189 and 93.2993 and 86.1692 and 98.1202 and 99.3761; Cell proliferation (Fig. S14) ([8]; HCT 116, concentration 5, replicates): 113.11 and 102.536 and 95.2844 and 92.408 and 101.807 and 114.082; Cell proliferation (Fig. S14) ([8]; HCT 116, concentration 10, replicates): 87.263 and 108.329 and 83.941 and 79.8088 and 79.1606 and 114.487; solubility in water [9]: poorly solubilized; effect on growth of E. coli [10]: no effect; effect on the diversity or composition of fecal microbiota [11]: little effect

Q: Which results are given for `Oc1cc(Cl)ccc1Oc1ccc(Cl)cc1Cl` [TCS, Triclosan]?
A: TCS formed [12]: 10.13 pmol and 12.20 pmol and 15.57 pmol; No-Observed-Adverse-Effect Level (NOAEL) ([13]; ref 36 (reply to reviewers)): 25 to 40 mg/kg/day; calculated Acceptable Daily Intake (ADI) ([13]; ref 37 (reply to reviewers)): 0.25 to 0.4 mg/kg/day
